In patent publication EP1634598A1, “Use of piperazine derivatives and analogues for the manufacture of a medicament for the prophylaxis and/or treatment of disorders of food ingestion” (LABORATORIOS DEL DR. ESTEVE, S.A., priority 2004, dated 2006):

Tests used:
[1] = test system: a selection of other relevant receptors; settings: according to US2003/0171347A1, page 7, table2 and page 8, table 3; cited from earlier work
Obese Rats (DIO) = assay: Chronical treatment of obese rats (DIO); assay type: in vivo; settings: 50 mg/Kg i.p., one injection per day for 9 days, followed for 10 more days, compared to Saline, data only in Figures 1 to 4
Protocol: Obese Rats (DIO) were treated for 9 days intraperitoneally (i.p.) one injection per day with Saline, with BD-1063 at 50 mg/Kg and PRE-084 at 25 mg /Kg, a well known […]. During that time each day and at some points during the following 10 days the weight giving the difference in weight (referring to the day of starting the treatment) was determined, as were the blood glucose levels, blood level of cholesterol, blood level of Triglycerides (TG).

SMILES | binding to a selection of other relevant receptors [1] | effect on the weight (in weight difference), blood glucose levels, blood level of cholesterol, blood level of Triglycerides (TG) (Obese Rats (DIO))
CN(C)CCN(C)CCc1ccc(Cl)c(Cl)c1 [BD-1047, N1-(3,4-dichlorophenethyl)-N1,N2,N2-trimethylethane-1,2-diamine] | no or only slight binding | –
CN1CCN(CCc2ccc(Cl)c(Cl)c2)CC1 [BD-1063, 1-(3,4-dichlorophenethyl)-4-methylpiperazine] | no or only slight binding | highly effective
